Assay results reported in PMC10763615, “Identification and engineering of potent cyclic peptides with selective or promiscuous binding through biochemical profiling and bioinformatic data analysis” (RSC Chemical Biology, 2023).
pKd: −log10 of the molar value. Like-named read-outs stand apart in the source and are kept apart here. Positions of bridges follow the written chain, without caps; N, C: chain ends. Residues, ends and D or L forms follow the SMILES beside them.

Experiments:
Assay type in all cases: binding
FGF-R3C ECD = target: T1, FGF-R3C ECD (Homo sapiens, UniProt P22607); experiment: biochemical; design: DNA constructs for the extracellular domain (ECD) of human FGF-; HPC4 (C); made in house; host or cells: HEK 293-6E
T1 sequence (P22607 23-375 limits assumed): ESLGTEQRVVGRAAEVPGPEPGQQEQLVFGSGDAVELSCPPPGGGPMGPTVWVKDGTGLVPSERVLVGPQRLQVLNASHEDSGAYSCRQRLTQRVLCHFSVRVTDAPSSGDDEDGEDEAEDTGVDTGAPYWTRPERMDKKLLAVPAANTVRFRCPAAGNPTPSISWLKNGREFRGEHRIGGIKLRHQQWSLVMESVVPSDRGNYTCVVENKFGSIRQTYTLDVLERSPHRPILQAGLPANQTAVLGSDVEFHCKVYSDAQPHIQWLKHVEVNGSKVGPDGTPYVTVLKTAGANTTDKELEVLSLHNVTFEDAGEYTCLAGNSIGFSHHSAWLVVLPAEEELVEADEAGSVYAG
Outline: (§1)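 Streptavidin biosensors carrying biotinylated FGF receptor ECD were immersed in peptide (~1 μM for crude single-point runs, a concentration series for purified peptides) and then in peptide-free buffer. KD was obtained by fitting the BLI association and dissociation curves.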

FGF-R1C ECD = target: T2, FGF-R1C ECD (Homo sapiens, UniProt P11362); experiment: biochemical; design: DNA constructs for the extracellular domain (ECD) of human FGF-; HPC4 (C); made in house; host or cells: HEK 293-6E
T2 sequence (P11362 22-376 limits assumed): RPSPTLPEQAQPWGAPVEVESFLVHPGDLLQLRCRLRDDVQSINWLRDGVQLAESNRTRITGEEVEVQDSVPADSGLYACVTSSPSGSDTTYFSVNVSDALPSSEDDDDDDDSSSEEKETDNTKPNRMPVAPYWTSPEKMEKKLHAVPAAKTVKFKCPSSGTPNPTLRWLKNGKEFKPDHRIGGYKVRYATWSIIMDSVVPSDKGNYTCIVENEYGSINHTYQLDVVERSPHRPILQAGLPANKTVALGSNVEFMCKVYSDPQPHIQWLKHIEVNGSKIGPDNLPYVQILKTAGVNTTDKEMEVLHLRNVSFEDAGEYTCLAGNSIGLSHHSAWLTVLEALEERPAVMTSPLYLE
Outline: as §1

FGF-R4 ECD = target: T3, FGF-R4 ECD (Homo sapiens, UniProt P22455); experiment: single concentration BLI of crude peptides
T3 construct: DNA constructs for the extracellular domain (ECD) of human FGF-; HPC4 (C); made in house; host or cells: HEK 293-6E
T3 sequence (P22455 22-369 limits assumed): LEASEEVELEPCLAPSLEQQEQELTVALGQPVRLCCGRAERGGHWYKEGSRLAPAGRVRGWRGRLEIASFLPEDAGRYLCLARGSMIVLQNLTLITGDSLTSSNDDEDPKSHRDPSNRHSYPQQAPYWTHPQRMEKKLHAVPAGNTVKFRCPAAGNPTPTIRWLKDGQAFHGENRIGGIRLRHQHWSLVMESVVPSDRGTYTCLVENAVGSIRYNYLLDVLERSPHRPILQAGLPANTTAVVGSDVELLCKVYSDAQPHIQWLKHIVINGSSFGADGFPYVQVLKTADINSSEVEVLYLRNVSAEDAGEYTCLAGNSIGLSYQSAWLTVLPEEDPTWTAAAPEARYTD
Outline: as §1

[1] = crude T18 selection 1 (1:1:1) peptides, single concentration BLI (Table S4), read-out: KD (4)
[2] = crude NNK peptides, single concentration BLI (Table S3), read-out: KD (4)

SMILES | pKd (FGF-R3C ECD) | pKd (FGF-R1C ECD) | pKd (FGF-R4 ECD; [1]) | pKd (FGF-R4 ECD) | pKd (FGF-R4 ECD; [2])
CC[C@H](C)[C@@H]1NC(=O)[C@H](CC(=O)O)NC(=O)[C@H](Cc2ccc(O)cc2)NC(=O)[C@@H](NC(=O)[C@H](CCSC)NC(C)=O)CSSC[C@@H](C(=O)NCC(=O)N[C@@H](CO)C(=O)NCC(=O)N[C@@H](CO)C(=O)N[C@@H](CC(=O)O)C(=O)N[C@@H](Cc2ccc(O)cc2)C(=O)N[C@@H](CCCCN)C(=O)N[C@@H](CC(=O)O)C(=O)N[C@@H](CC(=O)O)C(=O)N[C@@H](CC(=O)O)C(=O)N[C@@H](CC(=O)O)C(=O)N[C@@H](CCCCN)C(N)=O)NC(=O)[C@H](Cc2c[nH]cn2)NC(=O)[C@H](Cc2ccc(O)cc2)NC(=O)[C@H](C(C)C)NC(=O)[C@H]([C@@H](C)O)NC(=O)[C@H]([C@@H](C)CC)NC(=O)[C@H](Cc2ccc(O)cc2)NC(=O)[C@H](CC(=O)O)NC(=O)[C@H](Cc2ccccc2)NC(=O)[C@H](C(C)C)NC1=O (Ac-MCYDIVFDYITVYHCGSGSDYKDDDDK-NH2; disulfide 2-15) | < 5.00 | < 5.00 | 7.68 |  | 
CC[C@H](C)[C@@H]1NC(=O)[C@H](Cc2ccc(O)cc2)NC(=O)[C@H](CCCNC(=N)N)NC(=O)[C@H](Cc2c[nH]cn2)NC(=O)[C@@H](NC(=O)[C@H](CCSC)NC(C)=O)CSSC[C@@H](C(=O)NCC(=O)N[C@@H](CO)C(=O)NCC(=O)N[C@@H](CO)C(=O)N[C@@H](CC(=O)O)C(=O)N[C@@H](Cc2ccc(O)cc2)C(=O)N[C@@H](CCCCN)C(=O)N[C@@H](CC(=O)O)C(=O)N[C@@H](CC(=O)O)C(=O)N[C@@H](CC(=O)O)C(=O)N[C@@H](CC(=O)O)C(=O)N[C@@H](CCCCN)C(N)=O)NC(=O)[C@H](Cc2c[nH]cn2)NC(=O)[C@H](Cc2c[nH]c3ccccc23)NC(=O)[C@H](Cc2ccc(O)cc2)NC(=O)[C@H](CC(=O)O)NC(=O)[C@H](CC(C)C)NC(=O)[C@H](Cc2ccc(O)cc2)NC1=O (Ac-MCHRYIYLDYWHCGSGSDYKDDDDK-NH2; disulfide 2-13) | < 5.00 | < 5.00 |  | 7.36 | 
CSCC[C@H](NC(C)=O)C(=O)N[C@H]1CSSC[C@@H](C(=O)NCC(=O)N[C@@H](CO)C(=O)NCC(=O)N[C@@H](CO)C(=O)N[C@@H](CC(=O)O)C(=O)N[C@@H](Cc2ccc(O)cc2)C(=O)N[C@@H](CCCCN)C(=O)N[C@@H](CC(=O)O)C(=O)N[C@@H](CC(=O)O)C(=O)N[C@@H](CC(=O)O)C(=O)N[C@@H](CC(=O)O)C(=O)N[C@@H](CCCCN)C(N)=O)NC(=O)[C@H](CO)NC(=O)[C@H](Cc2c[nH]cn2)NC(=O)[C@H](Cc2ccccc2)NC(=O)[C@H](CC(C)C)NC(=O)[C@H](CCCCN)NC(=O)[C@H](Cc2ccc(O)cc2)NC(=O)[C@H](Cc2ccc(O)cc2)NC(=O)[C@H](CC(C)C)NC(=O)[C@H](CC(C)C)NC(=O)[C@H](Cc2c[nH]cn2)NC1=O (Ac-MCHLLYYKLFHSCGSGSDYKDDDDK-NH2; disulfide 2-13) | < 5.00 | 7.20 | 6.94 |  | 
CSCC[C@H](NC(C)=O)C(=O)N[C@H]1CSSC[C@@H](C(=O)NCC(=O)N[C@@H](CO)C(=O)NCC(=O)N[C@@H](CO)C(=O)N[C@@H](CC(=O)O)C(=O)N[C@@H](Cc2ccc(O)cc2)C(=O)N[C@@H](CCCCN)C(=O)N[C@@H](CC(=O)O)C(=O)N[C@@H](CC(=O)O)C(=O)N[C@@H](CC(=O)O)C(=O)N[C@@H](CC(=O)O)C(=O)N[C@@H](CCCCN)C(N)=O)NC(=O)[C@H]([C@@H](C)O)NC(=O)[C@H](CCSC)NC(=O)[C@H](CC(C)C)NC(=O)[C@H](CCCNC(=N)N)NC(=O)[C@H](Cc2c[nH]c3ccccc23)NC(=O)[C@H](CC(C)C)NC(=O)[C@H](CC(C)C)NC(=O)[C@H](Cc2ccccc2)NC(=O)[C@H](Cc2ccc(O)cc2)NC(=O)[C@H](CCCCN)NC(=O)[C@@H]2CCCN2C1=O (Ac-MCPKYFLLWRLMTCGSGSDYKDDDDK-NH2; disulfide 2-14) | < 5.00 | < 5.00 |  |  | 5.74
CC[C@H](C)[C@@H]1NC(=O)[C@H](Cc2c[nH]cn2)NC(=O)[C@@H](NC(=O)[C@H](CCSC)NC(C)=O)CSSC[C@@H](C(=O)NCC(=O)N[C@@H](CO)C(=O)NCC(=O)N[C@@H](CO)C(=O)N[C@@H](CCC(=O)O)C(=O)N[C@@H](CCC(=O)O)C(=O)NCC(=O)N[C@@H](CO)C(=O)NCC(=O)N[C@@H](CO)C(=O)N[C@@H](CC(=O)O)C(=O)N[C@@H](Cc2ccc(O)cc2)C(=O)N[C@@H](CCCCN)C(=O)N[C@@H](CC(=O)O)C(=O)N[C@@H](CC(=O)O)C(=O)N[C@@H](CC(=O)O)C(=O)N[C@@H](CC(=O)O)C(=O)N[C@@H](CCCCN)C(N)=O)NC(=O)[C@H](Cc2c[nH]cn2)NC(=O)[C@H](CCCCN)NC(=O)[C@H](CCCNC(=N)N)NC(=O)[C@H](C(C)C)NC(=O)[C@H](CC(C)C)NC(=O)[C@H](CCC(N)=O)NC(=O)[C@H](Cc2c[nH]c3ccccc23)NC(=O)[C@H](Cc2ccc(O)cc2)NC(=O)[C@H](CCCNC(=N)N)NC1=O (Ac-MCHIRYWQLVRKHCGSGSEEGSGSDYKDDDDK-NH2; disulfide 2-14) | < 5.00 | < 5.00 | 8.00 |  | 
CC[C@H](C)[C@@H]1NC(=O)[C@@H](NC(=O)[C@H](CCSC)NC(C)=O)CSSC[C@@H](C(=O)NCC(=O)N[C@@H](CO)C(=O)NCC(=O)N[C@@H](CO)C(=O)N[C@@H](CC(=O)O)C(=O)N[C@@H](Cc2ccc(O)cc2)C(=O)N[C@@H](CCCCN)C(=O)N[C@@H](CC(=O)O)C(=O)N[C@@H](CC(=O)O)C(=O)N[C@@H](CC(=O)O)C(=O)N[C@@H](CC(=O)O)C(=O)N[C@@H](CCCCN)C(N)=O)NC(=O)[C@H](CO)NC(=O)[C@H](CO)NC(=O)[C@H](CCCNC(=N)N)NC(=O)[C@H](Cc2c[nH]c3ccccc23)NC(=O)[C@H](CC(C)C)NC(=O)[C@H](CC(C)C)NC(=O)[C@H](Cc2ccccc2)NC(=O)[C@H]([C@@H](C)O)NC(=O)[C@H](CCCCN)NC1=O (Ac-MCIKTFLLWRSSCGSGSDYKDDDDK-NH2; disulfide 2-13) | < 5.00 | < 5.00 |  |  | < 5.00
CC[C@H](C)[C@@H]1NC(=O)[C@H](Cc2ccccc2)NC(=O)[C@@H]2CCCN2C(=O)[C@H](Cc2ccccc2)NC(=O)[C@H](Cc2c[nH]cn2)NC(=O)[C@H]([C@@H](C)O)NC(=O)[C@H](CC(=O)O)NC(=O)[C@H](Cc2ccccc2)NC(=O)[C@H]([C@@H](C)O)NC(=O)[C@@H](NC(=O)[C@@H](N)CCSC)CSSC[C@@H](C(=O)NCC(=O)N[C@@H](CO)C(=O)NCC(=O)N[C@@H](CO)C(=O)N[C@@H](CC(=O)O)C(=O)N[C@@H](Cc2ccc(O)cc2)C(=O)N[C@@H](CCCCN)C(=O)N[C@@H](CC(=O)O)C(=O)N[C@@H](CC(=O)O)C(=O)N[C@@H](CC(=O)O)C(=O)N[C@@H](CC(=O)O)C(=O)N[C@@H](CCCCN)C(N)=O)NC(=O)[C@H]([C@@H](C)O)NC1=O (H-MCTFDTHFPFITCGSGSDYKDDDDK-NH2; disulfide 2-13) | 6.54 | < 5.00 |  |  | < 5.00
CC[C@H](C)[C@@H]1NC(=O)[C@H](Cc2ccc(O)cc2)NC(=O)[C@H](CCCCN)NC(=O)[C@H](C(C)C)NC(=O)[C@@H](NC(=O)[C@H](CCSC)NC(C)=O)CSSC[C@@H](C(=O)NCC(=O)N[C@@H](CO)C(=O)NCC(=O)N[C@@H](CO)C(=O)N[C@@H](CC(=O)O)C(=O)N[C@@H](Cc2ccc(O)cc2)C(=O)N[C@@H](CCCCN)C(=O)N[C@@H](CC(=O)O)C(=O)N[C@@H](CC(=O)O)C(=O)N[C@@H](CC(=O)O)C(=O)N[C@@H](CC(=O)O)C(=O)N[C@@H](CCCCN)C(N)=O)NC(=O)[C@H](Cc2c[nH]cn2)NC(=O)[C@H](Cc2ccccc2)NC(=O)[C@H](C(C)C)NC(=O)[C@H](CO)NC(=O)[C@H](Cc2c[nH]c3ccccc23)NC(=O)[C@H](Cc2ccc(O)cc2)NC(=O)[C@H](CCCCN)NC1=O (Ac-MCVKYIKYWSVFHCGSGSDYKDDDDK-NH2; disulfide 2-14) | < 5.00 | < 5.00 | 7.77 |  | 
